Laboratory results taken from PubChem BioAssay AID248 (DTP/NCI, 2004).
“And” between values parts separate entries of the source, which are not always exact repeats. Identical values can stand only once. Toxic doses and inconclusive results are not listed. Rule as the data show it: active = T/C of 150% or more; inactive = T/C below 125%.

Tested on: L1210 leukemia ip in BDF1 mice, survival T/C
Assay: NCI In Vivo Anticancer Drug Screen. Data for tumor model L1210 Leukemia (intraperitoneal) in B6D2F1 (BDF1) mice
Conditions: higher = longer survival
Summary of the method: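 Antitumor effect is assessed in tumor-bearing animals. Survival in the compound arm is compared with a vehicle-dosed control arm and expressed as their quotient.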

[1] = endpoint: mean survival time, dose: 100.0 mg/kg/injection, schedule: Q01DX009 (ip), vehicle: Klucel (hydroxypropylcellulose) (HPC)
[2] = endpoint: mean survival time, dose: 100.0 mg/kg/injection, schedule: Q04DX003 (ip), vehicle: Klucel (hydroxypropylcellulose) (HPC)
[3] = endpoint: mean survival time, dose: 200.0 mg/kg/injection, schedule: Q01DX009 (ip), vehicle: Klucel (hydroxypropylcellulose) (HPC)
[4] = endpoint: mean survival time, dose: 200.0 mg/kg/injection, schedule: Q04DX003 (ip), vehicle: Klucel (hydroxypropylcellulose) (HPC)
[5] = endpoint: mean survival time, dose: 400.0 mg/kg/injection, schedule: Q01DX009 (ip), vehicle: Klucel (hydroxypropylcellulose) (HPC)
[6] = endpoint: mean survival time, dose: 400.0 mg/kg/injection, schedule: Q04DX003 (ip), vehicle: Klucel (hydroxypropylcellulose) (HPC)
[7] = endpoint: mean survival time, dose: 100.0 mg/kg/injection, schedule: Q04DX003 (ip), vehicle: saline
[8] = endpoint: mean survival time, dose: 100.0 mg/kg/injection, schedule: Q04DX003 (ip), vehicle: saline with Tween-80
[9] = endpoint: mean survival time, dose: 200.0 mg/kg/injection, schedule: Q04DX003 (ip), vehicle: saline with Tween-80
[10] = endpoint: mean survival time, dose: 400.0 mg/kg/injection, schedule: Q04DX003 (ip), vehicle: saline with Tween-80
[11] = endpoint: mean survival time, dose: 100.0 mg/kg/injection, schedule: Q01DX001 (ip), vehicle: saline
[12] = endpoint: mean survival time, dose: 75.0 mg/kg/injection, schedule: Q01DX009 (ip), vehicle: Klucel (hydroxypropylcellulose) (HPC)
[13] = endpoint: mean survival time, dose: 150.0 mg/kg/injection, schedule: Q01DX009 (ip), vehicle: Klucel (hydroxypropylcellulose) (HPC)
[14] = endpoint: mean survival time, dose: 300.0 mg/kg/injection, schedule: Q01DX009 (ip), vehicle: Klucel (hydroxypropylcellulose) (HPC)

Measured: T/C

COc1ccc(C[C@H](N)C(=O)NC2C(CO)OC(n3cnc4c(N(C)C)ncnc43)C2O)cc1 (some centres undefined)
inactive: endpoint: mean survival time, dose: 5.0 mg/kg/injection, schedule: Q01DX001 (ip), vehicle: saline 103 % of control | endpoint: mean survival time, dose: 9.94 mg/kg/injection, schedule: Q01DX Z (ip), vehicle: carboxymethylcellulose (CMC) 108 % of control | endpoint: mean survival time, dose: 10.0 mg/kg/injection, schedule: Q01DX001 (ip), vehicle: saline 97 % of control | endpoint: mean survival time, dose: 19.88 mg/kg/injection, schedule: Q01DX Z (ip), vehicle: carboxymethylcellulose (CMC) 117 % of control | endpoint: mean survival time, dose: 20.0 mg/kg/injection, schedule: Q01DX001 (ip), vehicle: saline 95 % of control | endpoint: mean survival time, dose: 39.75 mg/kg/injection, schedule: Q01DX Z (ip), vehicle: carboxymethylcellulose (CMC) 112 % of control | endpoint: mean survival time, dose: 40.0 mg/kg/injection, schedule: Q01DX001 (ip), vehicle: saline 110 % of control | endpoint: mean survival time, dose: 79.5 mg/kg/injection, schedule: Q01DX Z (ip), vehicle: carboxymethylcellulose (CMC) 113 % of control | endpoint: mean survival time, dose: 80.0 mg/kg/injection, schedule: Q01DX001 (ip), vehicle: saline 100 % of control | endpoint: median survival time, dose: 25.0 mg/kg/injection, schedule: Q04DX003 (ip), vehicle: saline 95 % of control | endpoint: median survival time, dose: 50.0 mg/kg/injection, schedule: Q04DX003 (ip), vehicle: saline 107 % of control | endpoint: median survival time, dose: 100.0 mg/kg/injection, schedule: Q04DX003 (ip), vehicle: saline 108 % of control | endpoint: median survival time, dose: 200.0 mg/kg/injection, schedule: Q04DX003 (ip), vehicle: saline 106 % of control

Clc1ccc2c(c1)Nc1ccccc1S2
inactive: [1] 88 % of control | [2] 94 % of control | [3] 95 % of control | [4] 98 % of control | [5] 96 % of control | [6] 100 % of control

CCC(C)C1NC(=O)C(C(C)=O)=C1O.[Cu+2] (centres undefined)
inactive: endpoint: mean survival time, dose: 150.0 mg/kg/injection, schedule: Q01DX001 (ip), vehicle: carboxymethylcellulose (CMC) 105 % of control

CN(C)CC(Cl)CCl (centres undefined)
inactive: [7] 98 % of control | endpoint: mean survival time, dose: 200.0 mg/kg/injection, schedule: Q04DX003 (ip), vehicle: saline 107 % of control | endpoint: mean survival time, dose: 400.0 mg/kg/injection, schedule: Q04DX003 (ip), vehicle: saline 115 % of control

COc1ccc(C(=O)OCc2ccccc2CN2CCCCC2C)cc1 (centres undefined)
inactive: endpoint: mean survival time, dose: 100.0 mg/kg/injection, schedule: Q04DX002 (ip), vehicle: saline 94 % of control | endpoint: mean survival time, dose: 200.0 mg/kg/injection, schedule: Q04DX002 (ip), vehicle: saline 108 % of control | endpoint: mean survival time, dose: 400.0 mg/kg/injection, schedule: Q04DX002 (ip), vehicle: saline 86 % of control

CC(=O)c1c(C)n(C)c2ccccc12
inactive: endpoint: mean survival time, dose: 100.0 mg/kg/injection, schedule: Q01DX001 (ip), vehicle: saline with Tween-80 103 % of control | endpoint: mean survival time, dose: 100.0 mg/kg/injection, schedule: Q04DX002 (ip), vehicle: Klucel (hydroxypropylcellulose) (HPC) 95 % of control | [8] 95 % of control | endpoint: mean survival time, dose: 200.0 mg/kg/injection, schedule: Q01DX001 (ip), vehicle: saline with Tween-80 101 % of control | endpoint: mean survival time, dose: 200.0 mg/kg/injection, schedule: Q04DX002 (ip), vehicle: Klucel (hydroxypropylcellulose) (HPC) 98 % of control | [9] 92 % of control | endpoint: mean survival time, dose: 400.0 mg/kg/injection, schedule: Q01DX001 (ip), vehicle: saline with Tween-80 103 % of control | endpoint: mean survival time, dose: 400.0 mg/kg/injection, schedule: Q04DX002 (ip), vehicle: Klucel (hydroxypropylcellulose) (HPC) 109 % of control | [10] 93 % of control

Cn1c(=O)c2[nH]c(C3CC4C5CCC(C5)C4C3)nc2n(C)c1=O (centres undefined)
inactive: endpoint: mean survival time, dose: 50.0 mg/kg/injection, schedule: Q01DX001 (ip), vehicle: saline 100 % of control | [11] 108 % of control | endpoint: mean survival time, dose: 200.0 mg/kg/injection, schedule: Q01DX001 (ip), vehicle: saline 100 % of control | endpoint: mean survival time, dose: 400.0 mg/kg/injection, schedule: Q01DX001 (ip), vehicle: saline 96 % of control

Cc1ccc(S(=O)(=O)N(CCCc2c(Cc3ccccc3)nc(N)[nH]c2=O)c2ccccc2)cc1
inactive: [1] 88 % of control | [2] 97 % of control and 105 % of control | [3] 93 % of control | [4] 113 % of control and 88 % of control | [5] 100 % of control | [6] 93 % of control

COC1C(OC(N)=O)C(O)C(Oc2ccc3c(O)c(N)c(=O)oc3c2C)OC1(C)C (centres undefined)
inactive: endpoint: mean survival time, dose: 37.5 mg/kg/injection, schedule: Q01DX009 (ip), vehicle: Klucel (hydroxypropylcellulose) (HPC) 98 % of control | [12] 101 % of control | [13] 104 % of control | [14] 101 % of control

CN(C)c1ccnc(Cl)n1
inactive: endpoint: mean survival time, dose: 16.0 mg/kg/injection, schedule: Q01DX Z (ip), vehicle: methylcellulose (MC) 97 % of control | endpoint: mean survival time, dose: 31.0 mg/kg/injection, schedule: Q01DX Z (ip), vehicle: methylcellulose (MC) 96 % of control | endpoint: mean survival time, dose: 62.0 mg/kg/injection, schedule: Q01DX Z (ip), vehicle: methylcellulose (MC) 90 % of control | endpoint: mean survival time, dose: 125.0 mg/kg/injection, schedule: Q01DX Z (ip), vehicle: methylcellulose (MC) 92 % of control and 100 % of control | endpoint: mean survival time, dose: 250.0 mg/kg/injection, schedule: Q01DX Z (ip), vehicle: methylcellulose (MC) 97 % of control

Nc1[nH]c(=S)ncc1-c1cccc(Cl)c1
inactive: endpoint: mean survival time, dose: 50.0 mg/kg/injection, schedule: Q01DX001 (ip), vehicle: Klucel (hydroxypropylcellulose) (HPC) 110 % of control | endpoint: mean survival time, dose: 100.0 mg/kg/injection, schedule: Q01DX001 (ip), vehicle: Klucel (hydroxypropylcellulose) (HPC) 117 % of control | endpoint: mean survival time, dose: 200.0 mg/kg/injection, schedule: Q01DX001 (ip), vehicle: Klucel (hydroxypropylcellulose) (HPC) 114 % of control

O=C(O)CCSc1nc2ccccc2s1
inactive: [12] 101 % of control | [13] 88 % of control | [14] 95 % of control | [6] 94 % of control

CCOC(=O)Nc1cccc(C)c1C
inactive: [1] 100 % of control | [3] 107 % of control | [5] 104 % of control

COC(=O)C1CC=CC(C)C1C(=O)OC (centres undefined)
inactive: [1] 105 % of control | [3] 103 % of control | [5] 100 % of control

O=C1CC(CO)CN1CCc1ccccc1 (centres undefined)
inactive: [8] 96 % of control | [9] 94 % of control | [10] 96 % of control

CCCCN1CCN2C(=O)N(CC)CCC2C1 (centres undefined)
inactive: endpoint: mean survival time, dose: 25.0 mg/kg/injection, schedule: Q04DX003 (ip), vehicle: saline 91 % of control | endpoint: mean survival time, dose: 50.0 mg/kg/injection, schedule: Q04DX003 (ip), vehicle: saline 98 % of control | [11] 102 % of control | [7] 116 % of control
